Measurements as given in paper PMC5775428, “Towards an experimental classification system for membrane active peptides” (Scientific Reports, 2018).
Like-named read-outs stand apart in the source and are kept apart here.

Columns and labels:
[1] = system: Bacillus subtilis; details: Bacillus subtilis; for Minimum inhibitory concentration, Average: average of triplicates
Experimental: (§1) Antimicrobial activity was tested against three categories of human and plant pathogenic microorganisms: Gram-positive (Bacillus subtilis, Bacillus cereus, Staphylococcus aureus), Gram-negative (Escherichia coli, Pseudomonas aeruginosa, Erwinia carotovora, Pseudomonas syringae pv. tabaci, Xanthomonas campestris pv. citri) and yeasts (Candida albicans, Cryptococcus neoformans), as previously reported. […] The full list of peptide MICs was published in an accompanying paper, and is available in the current publication as supplementary dataset (Supplementary dataset 01).
(§2) The determination of the minimum inhibitory concentration (MIC) of peptides was performed as described in “Encrypted Antimicrobial Peptides from Plant Proteins”[7]. Briefly, MICs were determined following protocols M7-A10 and M27-A3 from Clinical & Laboratory Standards Institute (CLSI) for bacteria and yeasts, respectively. Different concentrations of IAPs (0.5 to 256 μM) were tested against several microorganisms in a final volume of 100 µL. Three biological repetitions, with 2 technical replicates each, were performed for each test, on polystyrene flat-bottom 96 wells microplates. The minimum inhibitory concentration (MIC) was defined as the concentration at which no cells were detected when visualized by optical microscopy. Please refer to the literature[7] for further details of the microbiological assays.

[2] = system: Pseudomonas syringae pv. tabaci
Experimental: as §1, §2

[3] = system: Bacillus cereus
Experimental: as §1, §2

[4] = system: Pseudomonas aeruginosa
Experimental: as §1, §2

[5] = system: Staphylococcus aureus
Experimental: as §1, §2

[6] = system: Escherichia coli
Experimental: as §1, §2

[7] = system: Xanthomonas campestris; details: for Minimum inhibitory concentration, Average: average of triplicates
Experimental: as §1, §2

[8] = system: Erwinia carotovora
Experimental: as §1, §2

[9] = system: Candida albicans; details: Candida albicans; for Minimum inhibitory concentration, Average: average of triplicates
Experimental: as §1, §2

[10] = system: Cryptococcus neoformans; details: Cryptococcus neoformans; for Minimum inhibitory concentration, Average: average of triplicates
Experimental: as §1, §2

[11] = Pseudomonas syringae pv. tabaci, CLSI M7-A10, triplicate 1
[12] = Pseudomonas syringae pv. tabaci, average of triplicates
[13] = Pseudomonas syringae pv. tabaci, triplicate 2
[14] = Pseudomonas syringae pv. tabaci, triplicate 3
[15] = Pseudomonas aeruginosa, CLSI M7-A10, triplicate 1
[16] = Pseudomonas aeruginosa, average of triplicates
[17] = Pseudomonas aeruginosa, triplicate 2
[18] = Pseudomonas aeruginosa, triplicate 3
[19] = Staphylococcus aureus, CLSI M7-A10, triplicate 1
[20] = Staphylococcus aureus, average of triplicates
[21] = Staphylococcus aureus, triplicate 2
[22] = Staphylococcus aureus, triplicate 3
[23] = Escherichia coli, CLSI M7-A10, triplicate 1
[24] = Escherichia coli, average of triplicates
[25] = Erwinia carotovora, CLSI M7-A10, triplicate 1
[26] = Erwinia carotovora, average of triplicates
[27] = Erwinia carotovora, triplicate 2
[28] = Erwinia carotovora, triplicate 3
[29] = CLSI M27-A3, 0.5 to 256 μM tested, triplicate 1, also published in ref 7
[30] = Bacillus cereus, CLSI M7-A10, triplicate 1
[31] = Bacillus cereus, average of triplicates

GSLHGFMYKYLKNMVLTLF [At01]
256.0 µM: Minimum inhibitory concentration, Average [8, 26]
64 µM: Minimum inhibitory concentration [6, 23] | Minimum inhibitory concentration ([6]; Escherichia coli, triplicate 2) | Minimum inhibitory concentration ([6]; Escherichia coli, triplicate 3)
256 µM: Minimum inhibitory concentration [8, 25] | Minimum inhibitory concentration [8, 27] | Minimum inhibitory concentration [8, 28]
32.0 µM: Minimum inhibitory concentration, Average [4, 16]
128 µM: Minimum inhibitory concentration [3] | Minimum inhibitory concentration ([7]; CLSI M7-A10, triplicate 1) | Minimum inhibitory concentration ([7]; triplicate 2) | Minimum inhibitory concentration ([7]; triplicate 3)
128.0 µM: Minimum inhibitory concentration, Average [3] | Minimum inhibitory concentration, Average [7]
16 µM: Minimum inhibitory concentration ([1]; CLSI M7-A10, triplicate 1) | Minimum inhibitory concentration ([1]; triplicate 2) | Minimum inhibitory concentration ([1]; triplicate 3) | Minimum inhibitory concentration [2, 11] | Minimum inhibitory concentration [2, 13] | Minimum inhibitory concentration [2, 14] | Minimum inhibitory concentration [5, 19] | Minimum inhibitory concentration [5, 21] | Minimum inhibitory concentration [5, 22] | Minimum inhibitory concentration [9, 29] | Minimum inhibitory concentration ([9]; triplicate 2) | Minimum inhibitory concentration ([9]; triplicate 3) | Minimum inhibitory concentration ([10]; CLSI M27-A3, triplicate 1) | Minimum inhibitory concentration ([10]; triplicate 2) | Minimum inhibitory concentration ([10]; triplicate 3)
16.0 µM: Minimum inhibitory concentration, Average [1] | Minimum inhibitory concentration, Average [2, 12] | Minimum inhibitory concentration, Average [5, 20] | Minimum inhibitory concentration, Average [9] | Minimum inhibitory concentration, Average [10]
64.0 µM: Minimum inhibitory concentration, Average [6, 24]
32 µM: Minimum inhibitory concentration [4, 15] | Minimum inhibitory concentration [4, 17] | Minimum inhibitory concentration [4, 18]

GAKLAKKQVRALGKFFSF [At03]
128.0 µM: Minimum inhibitory concentration, Average [9]
16 µM: Minimum inhibitory concentration [6, 23] | Minimum inhibitory concentration ([6]; Escherichia coli, triplicate 2) | Minimum inhibitory concentration ([6]; Escherichia coli, triplicate 3)
512 µM: Minimum inhibitory concentration [3, 30] | Minimum inhibitory concentration ([3]; Bacillus cereus, triplicate 2) | Minimum inhibitory concentration ([3]; Bacillus cereus, triplicate 3) | Minimum inhibitory concentration [4, 15] | Minimum inhibitory concentration [4, 17] | Minimum inhibitory concentration [4, 18] | Minimum inhibitory concentration [5, 19] | Minimum inhibitory concentration [5, 21] | Minimum inhibitory concentration [5, 22]
512.0 µM: Minimum inhibitory concentration, Average [3, 31] | Minimum inhibitory concentration, Average [4, 16] | Minimum inhibitory concentration, Average [5, 20]
16.0 µM: Minimum inhibitory concentration, Average [6, 24]
128 µM: Minimum inhibitory concentration [9, 29] | Minimum inhibitory concentration ([9]; triplicate 2) | Minimum inhibitory concentration ([9]; triplicate 3)
32.0 µM: Minimum inhibitory concentration, Average [7] | Minimum inhibitory concentration, Average [8, 26]
64.0 µM: Minimum inhibitory concentration, Average [10]
64 µM: Minimum inhibitory concentration ([10]; CLSI M27-A3, triplicate 1) | Minimum inhibitory concentration ([10]; triplicate 2) | Minimum inhibitory concentration ([10]; triplicate 3)
8 µM: Minimum inhibitory concentration ([1]; CLSI M7-A10, triplicate 1) | Minimum inhibitory concentration ([1]; triplicate 2) | Minimum inhibitory concentration ([1]; triplicate 3) | Minimum inhibitory concentration [2, 11] | Minimum inhibitory concentration [2, 13] | Minimum inhibitory concentration [2, 14]
32 µM: Minimum inhibitory concentration ([7]; CLSI M7-A10, triplicate 1) | Minimum inhibitory concentration ([7]; triplicate 2) | Minimum inhibitory concentration ([7]; triplicate 3) | Minimum inhibitory concentration [8, 25] | Minimum inhibitory concentration [8, 27] | Minimum inhibitory concentration [8, 28]
8.0 µM: Minimum inhibitory concentration, Average [1] | Minimum inhibitory concentration, Average [2, 12]

IVNHLVKLFDKGLNSIVNLR [Tc05]
64 µM: Minimum inhibitory concentration ([1]; CLSI M7-A10, triplicate 1) | Minimum inhibitory concentration ([1]; triplicate 2) | Minimum inhibitory concentration ([1]; triplicate 3)
64.0 µM: Minimum inhibitory concentration, Average [1]
512.0 µM: Minimum inhibitory concentration, Average [2] | Minimum inhibitory concentration, Average [3] | Minimum inhibitory concentration, Average [4] | Minimum inhibitory concentration, Average [5] | Minimum inhibitory concentration, Average [6] | Minimum inhibitory concentration, Average [7] | Minimum inhibitory concentration, Average [8]
128.0 µM: Minimum inhibitory concentration, Average [9] | Minimum inhibitory concentration, Average [10]
512 µM: Minimum inhibitory concentration [2] | Minimum inhibitory concentration [3] | Minimum inhibitory concentration [4] | Minimum inhibitory concentration [5] | Minimum inhibitory concentration [6] | Minimum inhibitory concentration ([7]; CLSI M7-A10, triplicate 1) | Minimum inhibitory concentration ([7]; triplicate 2) | Minimum inhibitory concentration ([7]; triplicate 3) | Minimum inhibitory concentration [8]
128 µM: Minimum inhibitory concentration [9, 29] | Minimum inhibitory concentration ([9]; triplicate 2) | Minimum inhibitory concentration ([9]; triplicate 3) | Minimum inhibitory concentration ([10]; CLSI M27-A3, triplicate 1) | Minimum inhibitory concentration ([10]; triplicate 2) | Minimum inhibitory concentration ([10]; triplicate 3)

GLLFKELQKLIRYQIFIGK [Tc10]
128 µM: Minimum inhibitory concentration [4] | Minimum inhibitory concentration ([7]; CLSI M7-A10, triplicate 1) | Minimum inhibitory concentration ([7]; triplicate 2) | Minimum inhibitory concentration ([7]; triplicate 3)
32 µM: Minimum inhibitory concentration ([6]; Escherichia coli, triplicate 2) | Minimum inhibitory concentration ([6]; Escherichia coli, triplicate 3)
64 µM: Minimum inhibitory concentration [9, 29] | Minimum inhibitory concentration ([9]; triplicate 2) | Minimum inhibitory concentration ([9]; triplicate 3) | Minimum inhibitory concentration ([10]; CLSI M27-A3, triplicate 1) | Minimum inhibitory concentration ([10]; triplicate 2) | Minimum inhibitory concentration ([10]; triplicate 3)
512 µM: Minimum inhibitory concentration [2, 11] | Minimum inhibitory concentration [2, 13] | Minimum inhibitory concentration [2, 14] | Minimum inhibitory concentration [3, 30] | Minimum inhibitory concentration ([3]; Bacillus cereus, triplicate 2) | Minimum inhibitory concentration ([3]; Bacillus cereus, triplicate 3) | Minimum inhibitory concentration [5, 19] | Minimum inhibitory concentration [5, 21] | Minimum inhibitory concentration [5, 22] | Minimum inhibitory concentration [8, 25] | Minimum inhibitory concentration [8, 27] | Minimum inhibitory concentration [8, 28]
64.0 µM: Minimum inhibitory concentration, Average [9] | Minimum inhibitory concentration, Average [10]
512.0 µM: Minimum inhibitory concentration, Average [2, 12] | Minimum inhibitory concentration, Average [3, 31] | Minimum inhibitory concentration, Average [5, 20] | Minimum inhibitory concentration, Average [8, 26]
16.0 µM: Minimum inhibitory concentration, Average [1]
16 µM: Minimum inhibitory concentration ([1]; CLSI M7-A10, triplicate 1) | Minimum inhibitory concentration ([1]; triplicate 2) | Minimum inhibitory concentration ([1]; triplicate 3) | Minimum inhibitory concentration [6, 23]
128.0 µM: Minimum inhibitory concentration, Average [4] | Minimum inhibitory concentration, Average [7]
26.7 µM: Minimum inhibitory concentration, Average [6, 24]

GSLHGFMYKYLKTLVLRLY [Zm01]
8.0 µM: Minimum inhibitory concentration, Average [1]
16.0 µM: Minimum inhibitory concentration, Average [4, 16] | Minimum inhibitory concentration, Average [5, 20] | Minimum inhibitory concentration, Average [7] | Minimum inhibitory concentration, Average [8, 26]
32 µM: Minimum inhibitory concentration [2, 11] | Minimum inhibitory concentration [2, 13] | Minimum inhibitory concentration [2, 14]
64 µM: Minimum inhibitory concentration [3, 30] | Minimum inhibitory concentration ([3]; Bacillus cereus, triplicate 2)
32.0 µM: Minimum inhibitory concentration, Average [2, 12]
4 µM: Minimum inhibitory concentration [9, 29] | Minimum inhibitory concentration ([10]; CLSI M27-A3, triplicate 1) | Minimum inhibitory concentration ([10]; triplicate 2) | Minimum inhibitory concentration ([10]; triplicate 3)
16 µM: Minimum inhibitory concentration [4, 15] | Minimum inhibitory concentration [4, 17] | Minimum inhibitory concentration [4, 18] | Minimum inhibitory concentration [5, 19] | Minimum inhibitory concentration [5, 21] | Minimum inhibitory concentration [5, 22] | Minimum inhibitory concentration ([6]; Escherichia coli, triplicate 2) | Minimum inhibitory concentration ([6]; Escherichia coli, triplicate 3) | Minimum inhibitory concentration ([7]; CLSI M7-A10, triplicate 1) | Minimum inhibitory concentration ([7]; triplicate 2) | Minimum inhibitory concentration ([7]; triplicate 3) | Minimum inhibitory concentration [8, 25] | Minimum inhibitory concentration [8, 27] | Minimum inhibitory concentration [8, 28]
13.3 µM: Minimum inhibitory concentration, Average [6, 24]
4.0 µM: Minimum inhibitory concentration, Average [10]
44.7 µM: Minimum inhibitory concentration, Average [3, 31]
6.7 µM: Minimum inhibitory concentration, Average [9]
8 µM: Minimum inhibitory concentration ([1]; CLSI M7-A10, triplicate 1) | Minimum inhibitory concentration ([1]; triplicate 2) | Minimum inhibitory concentration ([1]; triplicate 3) | Minimum inhibitory concentration [6, 23] | Minimum inhibitory concentration ([9]; triplicate 2) | Minimum inhibitory concentration ([9]; triplicate 3)
